The results in this text go back to patent US11566057B2, “Long-acting co-agonists of the glucagon and GLP-1 receptors” (Merck Sharp & Dohme Corp., priority 2017, dated 2023).

Numbered stars: 1 amine (or outer) side, 2 acyl side, 3 side chain; on linkers, the order of the positions; unused ones are H or OH. Square brackets hold non-standard residues; d marks the D form. Side chains are listed from the residue outwards. Peptide text beside a SMILES is read from it. * marks the point of attachment. C20 diacid = O=C(O)CCCCCCCCCCCCCCCCCCC(=O)*; Phe(4-CH2NH2) = NCc1ccc(C[C@H](N)C(=O)O)cc1; C18 diacid = O=C(O)CCCCCCCCCCCCCCCCC(=O)*; γGlu = O=C(O)[C@H](CCC(=O)[*:2])N[*:1]; Met(O2) = CS(=O)(=O)CC[C@H](N)C(=O)O; PEG5 = NCCOCCOCCOCCOCCOCCC(=O)O; αMeD = C[C@](N)(CC(=O)O)C(=O)O; AEEA = NCCOCCOCC(=O)O; Aib = CC(C)(N)C(=O)O

The target of assay [1] is T1, human GCGR (Homo sapiens, UniProt P47871).
T1 construct: expressed in transfected cells; growth medium holds Blasticidin and Hygromycin
T1 sequence (P47871 26-477): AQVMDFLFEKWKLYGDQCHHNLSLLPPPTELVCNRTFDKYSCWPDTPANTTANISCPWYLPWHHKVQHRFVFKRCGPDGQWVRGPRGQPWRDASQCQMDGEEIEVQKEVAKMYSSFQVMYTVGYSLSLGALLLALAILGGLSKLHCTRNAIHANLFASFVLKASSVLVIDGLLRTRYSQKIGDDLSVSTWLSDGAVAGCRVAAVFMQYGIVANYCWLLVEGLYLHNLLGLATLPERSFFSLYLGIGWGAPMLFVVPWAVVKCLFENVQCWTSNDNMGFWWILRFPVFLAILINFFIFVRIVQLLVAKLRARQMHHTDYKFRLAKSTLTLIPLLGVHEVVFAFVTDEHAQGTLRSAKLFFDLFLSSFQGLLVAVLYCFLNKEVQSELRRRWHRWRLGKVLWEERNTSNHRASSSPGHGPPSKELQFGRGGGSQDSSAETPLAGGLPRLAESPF
The experiment in a line: cAMP activity assay at the Glucagon receptor (GCGR). Format: cell-based. The conditions noted are these: for hGCGR/hGLP1R (hTone): ratio of GCGR EC50 to GLP1R EC50. The method, then:
(§1) Activity of the peptides at the Glucagon receptor (GCGR) and GLP-1 receptor (GLP1R) was measured in a cAMP activity assay.
(§2) GCG/GLP-1 receptor co-agonist peptides were dissolved in 100% DMSO (dimethyl sulfoxide) and serially diluted to generate 10 point titrations. The peptide solutions were then transferred into 384-well assay plates (150 nL/well). Assay ready frozen cells expressing human GLP1R or human GCGR were suspended in growth media consisting of DMEM medium (GIBCO®), 10% FBS (GIBCO®), 1×NEAA(GIBCO®), 1×P/S (GIBCO®), 10 ug/mL Blasticidin (GIBCO®) and 200 μg/mL Hygromycin (GIBCO®). […] The cell suspensions (15 μL) were then added to the assay plates containing the peptide solutions (30,000 cells/well for human GCGR; 10,000 cells/well for human GLP1R). The cells were incubated for 1 hour at room temperature in the dark. Production of cAMP was determined using HitHunter™ cAMPXS kits (DiscoverX) following manufacturer protocol. The plates were incubated for overnight at room temperature in the dark. Luminescence was measured using an EnVision Multilabel plate reader (Perkin Elmer). Native GLP-1 and Glucagon (Bachem) are used as control peptides. EC50 values were calculated using uses a 4 parameter logistic fit based on the Levenberg-Marquardt algorithm.

Assay [2] deals with T2, human GLP1R (Homo sapiens, UniProt P43220).
T2 construct: expressed in transfected cells; growth medium holds Blasticidin and Hygromycin
T2 sequence (P43220 24-463): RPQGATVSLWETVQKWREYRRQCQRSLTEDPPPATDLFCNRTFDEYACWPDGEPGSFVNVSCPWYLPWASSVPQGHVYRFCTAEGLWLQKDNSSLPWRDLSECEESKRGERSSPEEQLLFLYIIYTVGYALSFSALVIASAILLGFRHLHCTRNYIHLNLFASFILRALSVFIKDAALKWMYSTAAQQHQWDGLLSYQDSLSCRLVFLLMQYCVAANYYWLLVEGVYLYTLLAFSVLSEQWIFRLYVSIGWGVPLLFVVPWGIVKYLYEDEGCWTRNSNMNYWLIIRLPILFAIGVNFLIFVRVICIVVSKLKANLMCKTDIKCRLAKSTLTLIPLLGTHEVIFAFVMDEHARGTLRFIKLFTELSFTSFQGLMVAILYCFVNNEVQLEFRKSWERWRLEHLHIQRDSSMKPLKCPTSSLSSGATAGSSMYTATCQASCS
The experiment in a line: cAMP activity assay at the GLP-1 receptor (GLP1R). It is filed as cell-based. The following applies: summary statement: EC50 at each of the glucagon and GLP-1 receptors; read-out: EC50 at the GLP-1 receptor. The protocol:
as §1, §2

`CC(C)C[C@H](NC(=O)[C@H](Cc1ccc(O)cc1)NC(=O)[C@H](CCCCN)NC(=O)[C@H](CO)NC(=O)[C@H](Cc1ccc(O)cc1)NC(=O)[C@H](CC(=O)O)NC(=O)[C@H](CO)NC(=O)[C@@H](NC(=O)[C@H](Cc1ccccc1)NC(=O)[C@@H](NC(=O)CNC(=O)[C@H](CCC(N)=O)NC(=O)C(C)(C)NC(=O)[C@@H](N)Cc1c[nH]cn1)[C@@H](C)O)[C@@H](C)O)C(=O)N[C@@H](CC(=O)O)C(=O)N[C@@H](C)C(=O)N[C@@H](CCCNC(=N)N)C(=O)N[C@@H](C)C(=O)N[C@@H](C)C(=O)N[C@@H](CCC(N)=O)C(=O)N[C@@H](CC(=O)O)C(=O)N[C@@H](Cc1ccccc1)C(=O)N[C@H](C(=O)N[C@@H](CCC(N)=O)C(=O)N[C@@H](Cc1c[nH]c2ccccc12)C(=O)N[C@@H](CC(C)C)C(=O)N[C@@H](CCS(C)(=O)=O)C(=O)N[C@@H](CCCCNC(=O)COCCOCCNC(=O)COCCOCCNC(=O)CC[C@H](NC(=O)CCCCCCCCCCCCCCCCC(=O)O)C(=O)O)C(=O)N[C@H](C(N)=O)[C@@H](C)O)C(C)C` [TP602] (H-H[Aib]QGTFTSDYSKYLDARAAQDFVQWL[Met(O2)]K([AEEA-AEEA-γGlu-C18 diacid])T-NH2): in assay [1], the “hGCGR/hGLP1R (hTone)” value was found to be 6.3. In addition, the EC50 was under 5 nM in assay [1] (summary statement: EC50 at each of the glucagon and GLP-1 receptors, read-out: EC50 at the glucagon receptor); under 5 nM in assay [2]. Consider `CC(C)C[C@H](NC(=O)[C@H](Cc1ccc(O)cc1)NC(=O)[C@H](CCCCN)NC(=O)[C@H](CO)NC(=O)[C@H](Cc1ccc(O)cc1)NC(=O)[C@H](CC(=O)O)NC(=O)[C@H](CO)NC(=O)[C@@H](NC(=O)[C@H](Cc1ccccc1)NC(=O)[C@@H](NC(=O)CNC(=O)[C@H](CCC(N)=O)NC(=O)C(C)(C)NC(=O)[C@@H](N)Cc1c[nH]cn1)[C@@H](C)O)[C@@H](C)O)C(=O)N[C@@H](CC(=O)O)C(=O)N[C@@H](C)C(=O)N[C@@H](CCCNC(=N)N)C(=O)N[C@@H](C)C(=O)N[C@@H](C)C(=O)N[C@@H](CCC(N)=O)C(=O)N[C@@H](Cc1ccc(CNC(=O)COCCOCCNC(=O)COCCOCCNC(=O)CC[C@H](NC(=O)CCCCCCCCCCCCCCCCC(=O)O)C(=O)O)cc1)C(=O)N[C@@H](Cc1ccccc1)C(=O)N[C@H](C(=O)N[C@@H](CCC(N)=O)C(=O)N[C@@H](Cc1c[nH]c2ccccc12)C(=O)N[C@@H](CC(C)C)C(=O)N[C@@H](CC(C)C)C(=O)N[C@@](C)(CC(=O)O)C(=O)N[C@H](C(N)=O)[C@@H](C)O)C(C)C` [TP609] (H-H[Aib]QGTFTSDYSKYLDARAAQ[Phe(4-CH2NH2)]([AEEA-AEEA-γGlu-C18 diacid])FVQWLL[αMeD]T-NH2; N-terminus assumed), for which the “hGCGR/hGLP1R (hTone)” value in assay [1] is listed as 0.9. With `CC(C)C[C@H](NC(=O)[C@H](Cc1ccc(O)cc1)NC(=O)[C@H](CCCCN)NC(=O)[C@H](CO)NC(=O)[C@H](Cc1ccc(O)cc1)NC(=O)[C@H](CC(=O)O)NC(=O)[C@H](CO)NC(=O)[C@@H](NC(=O)[C@H](Cc1ccccc1)NC(=O)[C@@H](NC(=O)CNC(=O)[C@H](CCC(N)=O)NC(=O)C(C)(C)NC(=O)[C@@H](N)Cc1c[nH]cn1)[C@@H](C)O)[C@@H](C)O)C(=O)N[C@@H](CC(=O)O)C(=O)N[C@@H](C)C(=O)N[C@@H](CCCNC(=N)N)C(=O)N[C@@H](C)C(=O)N[C@@H](C)C(=O)N[C@@H](CCC(N)=O)C(=O)N[C@@H](Cc1ccc(CNC(=O)COCCOCCNC(=O)COCCOCCNC(=O)CC[C@H](NC(=O)CCCCCCCCCCCCCCCCCCC(=O)O)C(=O)O)cc1)C(=O)N[C@@H](Cc1ccccc1)C(=O)N[C@H](C(=O)N[C@@H](CCC(N)=O)C(=O)N[C@@H](Cc1c[nH]c2ccccc12)C(=O)N[C@@H](CC(C)C)C(=O)N[C@@H](CC(C)C)C(=O)N[C@@H](CC(=O)O)C(=O)N[C@H](C(N)=O)[C@@H](C)O)C(C)C` [TP585] (H-H[Aib]QGTFTSDYSKYLDARAAQ[Phe(4-CH2NH2)]([AEEA-AEEA-γGlu-C20 diacid])FVQWLLDT-NH2; N-terminus assumed), in assay [1], the “hGCGR/hGLP1R (hTone)” value stood at 2.0.

On to `CC(C)C[C@H](NC(=O)[C@H](Cc1ccc(O)cc1)NC(=O)[C@H](CCCCN)NC(=O)[C@H](CO)NC(=O)[C@H](Cc1ccc(O)cc1)NC(=O)[C@H](CC(=O)O)NC(=O)[C@H](CO)NC(=O)[C@@H](NC(=O)[C@H](Cc1ccccc1)NC(=O)[C@@H](NC(=O)CNC(=O)[C@H](CCC(N)=O)NC(=O)C(C)(C)NC(=O)[C@@H](N)Cc1c[nH]cn1)[C@@H](C)O)[C@@H](C)O)C(=O)N[C@@H](CC(=O)O)C(=O)N[C@@H](C)C(=O)N[C@@H](CCCNC(=N)N)C(=O)N[C@@H](C)C(=O)N[C@@H](C)C(=O)N[C@@H](CCC(N)=O)C(=O)N[C@@H](Cc1ccc(CNC(=O)COCCOCCNC(=O)COCCOCCNC(=O)CC[C@H](NC(=O)CCCCCCCCCCCCCCCCC(=O)O)C(=O)O)cc1)C(=O)N[C@@H](Cc1ccccc1)C(=O)N[C@H](C(=O)N[C@@H](CCC(N)=O)C(=O)N[C@@H](Cc1c[nH]c2ccccc12)C(=O)N[C@@H](CC(C)C)C(=O)N[C@@H](CC(C)C)C(=O)N[C@@H](CC(=O)O)C(=O)N[C@H](C(N)=O)[C@@H](C)O)C(C)C` [TP443] (H-H[Aib]QGTFTSDYSKYLDARAAQ[Phe(4-CH2NH2)]([AEEA-AEEA-γGlu-C18 diacid])FVQWLLDT-NH2), for which, in assay [1], the “hGCGR/hGLP1R (hTone)” value is reported as 1.8. On the same count and under the same terms, the value for `CC(C)C[C@H](NC(=O)[C@H](Cc1c[nH]c2ccccc12)NC(=O)[C@H](CCC(N)=O)NC(=O)[C@@H](NC(=O)[C@H](Cc1ccccc1)NC(=O)[C@H](CC(=O)O)NC(=O)[C@H](CCC(N)=O)NC(=O)[C@H](C)NC(=O)[C@H](C)NC(=O)[C@H](CCCNC(=N)N)NC(=O)C(C)(C)NC(=O)[C@H](CC(=O)O)NC(=O)[C@H](CC(C)C)NC(=O)[C@H](Cc1ccc(O)cc1)NC(=O)[C@H](CCCCN)NC(=O)[C@H](CO)NC(=O)[C@H](Cc1ccc(O)cc1)NC(=O)[C@H](CC(=O)O)NC(=O)[C@H](CO)NC(=O)[C@@H](NC(=O)[C@H](Cc1ccccc1)NC(=O)[C@@H](NC(=O)CNC(=O)[C@H](CCC(N)=O)NC(=O)[C@@H](CO)NC(=O)[C@@H](N)Cc1c[nH]cn1)[C@@H](C)O)[C@@H](C)O)C(C)C)C(=O)N[C@@H](CC(C)C)C(=O)N[C@@H](CCCCNC(=O)COCCOCCNC(=O)COCCOCCNC(=O)CC[C@H](NC(=O)CCCCCCCCCCCCCCCCC(=O)O)C(=O)O)C(=O)N[C@H](C(=O)N[C@@H](CCCCN)C(=O)N[C@@H](CCC(N)=O)C(=O)O)[C@@H](C)O` [TP685] (H-H[dS]QGTFTSDYSKYLD[Aib]RAAQDFVQWLLK([AEEA-AEEA-γGlu-C18 diacid])TKQ-OH; N-terminus and C-terminus assumed) was 7.9; that for `CC(C)C[C@H](NC(=O)[C@H](CC(C)C)NC(=O)[C@H](CCCCN)NC(=O)[C@H](CO)NC(=O)[C@H](Cc1ccc(O)cc1)NC(=O)[C@H](CC(=O)O)NC(=O)[C@H](CO)NC(=O)[C@@H](NC(=O)[C@H](Cc1ccccc1)NC(=O)[C@@H](NC(=O)CNC(=O)[C@H](CCC(N)=O)NC(=O)C(C)(C)NC(=O)[C@@H](N)Cc1c[nH]cn1)[C@@H](C)O)[C@@H](C)O)C(=O)N[C@@H](CC(=O)O)C(=O)N[C@@H](C)C(=O)N[C@@H](CCCNC(=N)N)C(=O)N[C@@H](C)C(=O)N[C@@H](C)C(=O)N[C@@H](CCCCNC(=O)COCCOCCNC(=O)COCCOCCNC(=O)CC[C@H](NC(=O)CCCCCCCCCCCCCCCCC(=O)O)C(=O)O)C(=O)N[C@@H](CC(=O)O)C(=O)N[C@@H](Cc1ccccc1)C(=O)N[C@H](C(=O)N[C@@H](CCC(N)=O)C(=O)N[C@@H](Cc1c[nH]c2ccccc12)C(=O)N[C@@H](CC(C)C)C(=O)N[C@@H](CCS(C)(=O)=O)C(=O)N[C@@](C)(CC(=O)O)C(=O)N[C@H](C(N)=O)[C@@H](C)O)C(C)C` [TP640] (H-H[Aib]QGTFTSDYSKLLDARAAK([AEEA-AEEA-γGlu-C18 diacid])DFVQWL[Met(O2)][αMeD]T-NH2) was 0.8.

Regarding `CC(C)C[C@H](NC(=O)[C@H](Cc1ccc(O)cc1)NC(=O)[C@H](CCCCN)NC(=O)[C@H](CO)NC(=O)[C@H](Cc1ccc(O)cc1)NC(=O)[C@H](CC(=O)O)NC(=O)[C@H](CO)NC(=O)[C@@H](NC(=O)[C@H](Cc1ccccc1)NC(=O)[C@@H](NC(=O)CNC(=O)[C@H](CCC(N)=O)NC(=O)C(C)(C)NC(=O)[C@@H](N)Cc1c[nH]cn1)[C@@H](C)O)[C@@H](C)O)C(=O)N[C@@H](CC(=O)O)C(=O)N[C@@H](C)C(=O)N[C@@H](CCCNC(=N)N)C(=O)N[C@@H](C)C(=O)N[C@@H](C)C(=O)N[C@@H](CCC(N)=O)C(=O)N[C@@H](CCCCNC(=O)CCOCCOCCOCCOCCOCCNC(=O)CC[C@H](NC(=O)CCCCCCCCCCCCCCCCC(=O)O)C(=O)O)C(=O)N[C@@H](Cc1ccccc1)C(=O)N[C@H](C(=O)N[C@@H](CCC(N)=O)C(=O)N[C@@H](Cc1c[nH]c2ccccc12)C(=O)N[C@@H](CC(C)C)C(=O)N[C@@H](CCS(C)(=O)=O)C(=O)N[C@@](C)(CC(=O)O)C(=O)N[C@H](C(N)=O)[C@@H](C)O)C(C)C` [TP608] (H-H[Aib]QGTFTSDYSKYLDARAAQK([PEG5-γGlu-C18 diacid])FVQWL[Met(O2)][αMeD]T-NH2), in assay [1], the “hGCGR/hGLP1R (hTone)” value worked out at 0.9.

As usually defined, the EC50 is the midpoint of the concentration-response curve.
